Source: ChEMBL document CHEMBL1201862, “PubChem BioAssay data set” (2004)
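96-well plates; 48 h exposure; 5 concentrations. Endpoints by linear interpolation between flanking doses. Not reached: highest tested concentration assigned. Here, GI50 denotes the concentration required for 50% inhibition of growth.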 Activity calls are given as the source filed them. Cut-off read from the data, not from the text of the source: active = GI50 up to about 1.1 µM and inactive = higher.

Columns and labels:
Experiment in all cases: growth of human tumour cells (NCI), 48 h
[1] = system: BT-549
[2] = system: LXFL 529
[3] = system: HOP-18
[4] = system: RXF 631
[5] = system: KM-20L2
[6] = system: SNB-78
[7] = system: DMS-273
[8] = system: XF498
[9] = system: DLD-1

SMILES: NC(C(=O)O)C(O)c1c[nH]cn1 (stereo unspecified)
- GI50 [1]: > 100 µM (inactive)

SMILES: Cc1c(CCl)c(=O)oc2c(C)c3occ(CCl)c(=O)c3cc12
- GI50 [2]: 15.2 µM (inactive)
- GI50 [3]: 17.4 µM (inactive)
- GI50 [4]: 16 µM (inactive)
- GI50 [5]: > 100 µM (inactive)

SMILES: NC(=O)c1ccc(S(=O)(=NS(=O)(=O)c2ccccc2)c2ccc(C(N)=O)cc2)cc1
- GI50 [1]: > 100 µM (inactive)

SMILES: Oc1cc(O)c2c(c1)OC(c1ccc(O)c(O)c1)C(O)C2c1c(O)cc(O)c2c1OC(c1ccc(O)c(O)c1)C(O)C2 (stereo unspecified)
- GI50 [1]: > 100 µM (inactive)

SMILES: COC(=O)c1ccc(/C=C(\c2ccc([N+](=O)[O-])o2)S(=O)(=O)c2ccc(NC(C)=O)cc2)o1
- GI50 [1]: 0.565 µM (active)

SMILES: O=C1CC23CC(=O)CC2(C1)c1ccccc1C3=O (stereo unspecified)
- GI50 [2]: > 100 µM (inactive)
- GI50 [6]: > 100 µM (inactive)
- GI50 [7]: > 100 µM (inactive)
- GI50 [3]: > 100 µM (inactive)
- GI50 [8]: > 100 µM (inactive)
- GI50 [5]: > 100 µM (inactive)
- GI50 [9]: > 100 µM (inactive)

SMILES: O=c1cccccc1O [TROPOLONE]
- GI50 [1]: 87.1 µM (inactive)

SMILES: COc1ccc(C2=C3c4cc(OC)c(OC)cc4CCN3C(=S)SS2)cc1OC
- GI50 [2]: 52.5 µM (inactive)
- GI50 [6]: 80.4 µM (inactive)
- GI50 [7]: 43.5 µM (inactive)
- GI50 [3]: > 100 µM (inactive)
- GI50 [5]: 75.9 µM (inactive)
- GI50 [9]: 33.7 µM (inactive)

SMILES: CC(C)=CCOC(=O)C(C)=[N+]=[N-]
- GI50 [1]: > 100 µM (inactive)

SMILES: C[C@H](CCC1=NCCN1)[C@H]1CC[C@H]2[C@@H]3CC[C@@H]4C[C@H](O)CC[C@]4(C)[C@H]3CC[C@]12C
- GI50 [1]: 14.4 µM (inactive)

SMILES: O=C(c1ccco1)N(C(=S)OCCOc1ccccc1)c1ccccc1
- GI50 [1]: 23 µM (inactive)

SMILES: O=C(OC1=CCN(Br)C1=O)C1=C(O)C(=O)N(Br)C1
- GI50 [1]: 18.2 µM (inactive)

SMILES: COC1CC(OS(=O)(=O)c2ccc(C)cc2)C(OC(=O)c2ccccc2)C(C)O1 (stereo unspecified)
- GI50 [2]: > 10 µM (inactive)
- GI50 [6]: > 10 µM (inactive)
- GI50 [7]: > 10 µM (inactive)
- GI50 [3]: > 10 µM (inactive)
- GI50 [8]: > 100 µM (inactive)
- GI50 [5]: > 10 µM (inactive)
- GI50 [9]: > 10 µM (inactive)

SMILES: CCCCCCCCCCCC(=O)OCCOCCOCCOCCOCCOC(=O)CCCCCCCCCCC
- GI50 [2]: > 100 µM (inactive)
- GI50 [6]: > 100 µM (inactive)
- GI50 [7]: > 100 µM (inactive)
- GI50 [3]: > 100 µM (inactive)
- GI50 [4]: > 100 µM (inactive)
- GI50 [5]: > 100 µM (inactive)
- GI50 [9]: > 100 µM (inactive)

SMILES: CNS(=O)(=O)NNS(=O)(=O)c1ccc(Cl)cc1
- GI50 [4]: > 100 µM (inactive)
- GI50 [5]: > 100 µM (inactive)
- GI50 [9]: > 100 µM (inactive)

SMILES: Nc1nc(Cl)cc(NCC2(CO)COC2)n1
- GI50 [1]: > 100 µM (inactive)

SMILES: O=C(CCC=C(S(=O)(=O)c1ccccc1)S(=O)(=O)c1ccccc1)c1ccccc1
- GI50 [1]: 5.82 µM (inactive)

SMILES: Cc1cc2c(Br)cc(Br)c(O)c2nc1C(=O)c1ccccc1
- GI50 [2]: 21.1 µM (inactive)
- GI50 [6]: 50.1 µM (inactive)
- GI50 [7]: 19 µM (inactive)
- GI50 [3]: 18.5 µM (inactive)
- GI50 [5]: 28.4 µM (inactive)
- GI50 [1]: > 100 µM (inactive)
- GI50 [9]: 36.6 µM (inactive)

SMILES: N#CCc1nnc(N)o1
- GI50 [2]: > 100 µM (inactive)
- GI50 [6]: > 100 µM (inactive)
- GI50 [7]: > 100 µM (inactive)
- GI50 [4]: > 100 µM (inactive)
- GI50 [8]: > 100 µM (inactive)
- GI50 [5]: > 100 µM (inactive)
- GI50 [9]: > 100 µM (inactive)

SMILES: CCC1(OC(=O)CNC)C(=O)OCc2c1cc1n(c2=O)Cc2cc3ccccc3nc2-1 (stereo unspecified)
- GI50 [2]: 0.207 µM (active)
- GI50 [6]: 0.263 µM (active)
- GI50 [7]: < 0.01 µM (active)
- GI50 [3]: 0.0177 µM (active)
- GI50 [4]: < 0.01 µM (active)
- GI50 [5]: 0.0336 µM (active)
- GI50 [1]: 0.0594 µM (active)
- GI50 [9]: 0.294 µM (active)

SMILES: Brc1ccc(-c2ccc(-c3ccc(Br)s3)s2)s1
- GI50 [1]: > 100 µM (inactive)

SMILES: Cc1cc2nnc(C(N)=O)c(N)c2cc1C
- GI50 [1]: > 100 µM (inactive)

SMILES: Cc1[nH]n(C(=N)N)c(=O)c1CCO
- GI50 [1]: > 100 µM (inactive)

SMILES: NCC(=O)NC(CO)C(=O)O (stereo unspecified)
- GI50 [1]: > 100 µM (inactive)

SMILES: C=CCN1C(=O)/C(=C/c2ccc(C)cc2)NC1=S
- GI50 [1]: > 100 µM (inactive)

SMILES: C[C@]12CC[C@H]3[C@@H](CCC4=CC(=O)C=C[C@@]43OC(=O)C(F)(F)F)[C@@H]1CCC2=O
- GI50 [1]: > 100 µM (inactive)

SMILES: O=C(Nc1cc(C(F)(F)F)ccc1Cl)C(=O)C(C(=O)c1ccc2ccccc2c1)C1OC(=O)c2ccccc21 (stereo unspecified)
- GI50 [2]: 5.11 µM (inactive)
- GI50 [5]: 20.4 µM (inactive)
- GI50 [9]: 9.82 µM (inactive)

SMILES: CN(C)CCN(C)c1ccc2c(=O)n(CCN(C)C)c(=O)n3c4ccccc4c(=O)c1c23
- GI50 [1]: 3.3 µM (inactive)

SMILES: O=C1C(Br)=C(Br)C(=O)c2c(O)ccc(O)c21
- GI50 [1]: 13.9 µM (inactive)

SMILES: COc1ccc(N(C(=O)OC(C)(C)C)[C@@H]2C(C)=C[C@H]([S@@+]([O-])c3ccc(C)cc3)[C@@H]3C(=O)N(C)C(=O)[C@@H]32)cc1
- GI50 [1]: 13.6 µM (inactive)

SMILES: CCc1nc2cc(F)ccc2[nH]c1=O
- GI50 [1]: > 100 µM (inactive)

SMILES: CC#Cc1c(C#CC)c(OC)c2c(c1OC)C(=O)c1ccccc1C2=O
- GI50 [2]: 54.2 µM (inactive)
- GI50 [7]: 22.8 µM (inactive)
- GI50 [8]: > 100 µM (inactive)
- GI50 [5]: > 100 µM (inactive)
- GI50 [9]: 76 µM (inactive)

SMILES: CN(C)C=C1C(=O)c2c(Br)sc(Br)c2C1=O
- GI50 [1]: 20.8 µM (inactive)
